The source of these data is patent publication US20110201603A1, “Novel Acylaminobenzamide Derivatives” (Bayer CropScience AG, priority 2008, published 2011).

The test system of one experiment is tobacco cutworm (Spodoptera litura) larvae. The experiment is described as follows: Test against tobacco cutworm (Spodoptera litura) larvae, leaf dip. It counts as in vivo. To be noted: active compound concentration of 100 ppm; third-instar larvae on sweet potato leaves; after 7 days. On the procedure:
(§1) Unless not mentioned otherwise, the test solutions were prepared as follows:
(§2) Containing as solvent: Dimethylformamide, 3 parts by weight; and as emulsifier: Polyoxyethylene alkyl phenyl ether, 1 part by weight
(§3) To prepare the test solution, 1 part by weight of an active compound is mixed with the above-mentioned amount of solvent containing the above-mentioned amount of emulsifier, and the mixture is diluted with water to the desired concentration.
The leaves of sweet potato were immersed in the test solution at the appropriate concentration, and the leaves were dried in air. The leaves were then placed in a petri dish having a diameter of 9 cm, and ten third-instar larvae of tobacco cutworm were released therein. The petri dish was placed in a temperature-controlled chamber at 25° C. After 2 days and 4 days sweet potato leaves were additionally added. After 7 days, the number of dead larvae was counted to calculate the insecticidal activity. An insecticidal activity of 100% means that all larvae were killed, whereas an insecticidal activity of 0% means that no larva was killed. In the current test, the results of two petri dishes for each partition were averaged.
Compound `O=C(Nc1c(Br)cc(C(c2ccccc2)(n2ccc(C(F)(F)F)n2)C(F)(F)F)cc1Br)c1cccc(NC(=O)c2cccnc2Cl)c1` (single isomer, unassigned) [2-99] had an insecticidal activity of 100%.

Compound `CCOC(c1cc(I)c(NC(=O)c2cccc(NC(=O)CCCl)c2)c(I)c1)(C(F)(F)F)C(F)(F)F` [1-23] showed an insecticidal activity of 100%.

`CCCOC(c1cc(I)c(NC(=O)c2cccc(NC(=O)c3ccc(C)nc3Cl)c2)c(I)c1)(C(F)(F)F)C(F)(F)F` [1-63] registered an insecticidal activity of 100%.

In the case of `C#CCOC(c1cc(I)c(NC(=O)c2cccc(NC(=O)c3ccccc3)c2)c(I)c1)(C(F)(F)F)C(F)(F)F` [1-79], the insecticidal activity stood at 100%.

`CC#CCOC(c1cc(I)c(NC(=O)c2cccc(NC(=O)c3ccccc3)c2)c(I)c1)(C(F)(F)F)C(F)(F)F` [1-83] had an insecticidal activity of 100%.

Consider `CC#CCOC(c1cc(I)c(NC(=O)c2cccc(NC(=O)c3ccc(F)cc3)c2)c(I)c1)(C(F)(F)F)C(F)(F)F` [1-84], for which the insecticidal activity stood at 100%.

In the case of `CC#CCOC(c1cc(I)c(NC(=O)c2cccc(NC(=O)c3cccnc3Cl)c2)c(I)c1)(C(F)(F)F)C(F)(F)F` [1-85], the insecticidal activity is 100%.

Take `CSCCOC(c1cc(I)c(NC(=O)c2cccc(NC(=O)c3cccnc3Cl)c2)c(I)c1)(C(F)(F)F)C(F)(F)F` [1-104]: the insecticidal activity turned out to be 100%.

Compound `CCc1cc(C(Oc2cccc(Cl)c2)(C(F)(F)F)C(F)(F)F)cc(C)c1NC(=O)c1cccc(NC(=O)c2cccnc2Cl)c1` [1-108] returned an insecticidal activity of 100%.

With `CCc1cc(C(Oc2cccc(C(F)(F)F)c2)(C(F)(F)F)C(F)(F)F)cc(C)c1NC(=O)c1cccc(NC(=O)c2cccnc2Cl)c1` [1-110], the insecticidal activity is given as 100%.

Compound `Cc1cc(C(Oc2ccnc(C(F)(F)F)c2)(C(F)(F)F)C(F)(F)F)cc(C)c1NC(=O)c1cccc(NC(=O)c2cccnc2Cl)c1` [1-111] displayed an insecticidal activity of 100%.

As for `CCc1cc(C(Oc2ccnc(C(F)(F)F)c2)(C(F)(F)F)C(F)(F)F)cc(C)c1NC(=O)c1cccc(NC(=O)c2cccnc2Cl)c1` [1-112], the insecticidal activity was determined as 100%.

Compound `CCc1cc(C(ON=Cc2ccccc2)(C(F)(F)F)C(F)(F)F)cc(C)c1NC(=O)c1cccc(NC(=O)c2cccnc2Cl)c1` [1-125] returned an insecticidal activity of 100%.

Regarding `CCc1cc(C(Oc2ccc(F)cc2)(C(F)(F)F)C(F)(F)F)cc(C)c1NC(=O)c1cccc(NC(=O)c2cccnc2Cl)c1` [1-128], the insecticidal activity was 100%.

The compound `CCc1cc(C(Oc2ccc(Br)cc2)(C(F)(F)F)C(F)(F)F)cc(C)c1NC(=O)c1cccc(NC(=O)c2cccnc2Cl)c1` [1-129] gave an insecticidal activity of 100%.

`CCc1cc(C(ON=Cc2ccc(C)cc2)(C(F)(F)F)C(F)(F)F)cc(C)c1NC(=O)c1cccc(NC(=O)c2cccnc2Cl)c1` [1-149] gave an insecticidal activity of 100%.

The compound `CCc1cc(C(ON=Cc2ccc(OC)cc2)(C(F)(F)F)C(F)(F)F)cc(C)c1NC(=O)c1cccc(NC(=O)c2cccnc2Cl)c1` [1-150] yielded an insecticidal activity of 100%.

`Cc1cc(C(Oc2cccc(C(F)(F)F)c2)(C(F)(F)F)C(F)(F)F)cc(C)c1NC(=O)c1cccc(NC(=O)c2cccnc2Cl)c1` [1-167] registered an insecticidal activity of 100%.

For the compound `Cc1cc(C(Oc2ccc(C#N)cc2)(C(F)(F)F)C(F)(F)F)cc(C)c1NC(=O)c1cccc(NC(=O)c2cccnc2Cl)c1` [1-180], the insecticidal activity worked out at 100%.

`CCc1cc(C(Oc2ccc(Cl)nc2)(C(F)(F)F)C(F)(F)F)cc(C)c1NC(=O)c1cccc(NC(=O)c2cccnc2Cl)c1` [1-181] yielded an insecticidal activity of 100%.

With `Cc1cc(C(Oc2ccc(Cl)cc2)(C(F)(F)F)C(F)(F)F)ccc1NC(=O)c1cccc(NC(=O)c2cccnc2Cl)c1` [1-201], the insecticidal activity worked out at 100%.

As to `CCc1cc(C(n2cc(Cl)cn2)(C(F)(F)F)C(F)(F)F)cc(C)c1NC(=O)c1cccc(NC(=O)c2ccccc2F)c1` [2-30], the insecticidal activity came to 100%.

With `CCc1cc(C(n2cc(Cl)cn2)(C(F)(F)F)C(F)(F)F)cc(C)c1NC(=O)c1cccc(NC(=O)c2cccc(F)c2)c1` [2-35], the insecticidal activity stood at 100%.

For the compound `CCc1cc(C(n2cc(Cl)cn2)(C(F)(F)F)C(F)(F)F)cc(C)c1NC(=O)c1cccc(NC(=O)c2ccc(F)cc2)c1` [2-36], the insecticidal activity was 100%.

`CCc1cc(C(n2cc(Cl)cn2)(C(F)(F)F)C(F)(F)F)cc(C)c1NC(=O)c1cccc(NC(=O)c2cccc(F)c2F)c1` [2-37] registered an insecticidal activity of 100%.

Take `CCc1cc(C(n2cc(Cl)cn2)(C(F)(F)F)C(F)(F)F)cc(C)c1NC(=O)c1cccc(NC(=O)c2ccc(F)cc2F)c1` [2-38]: the insecticidal activity came out at 100%.

Turning to `CCc1cc(C(n2cc(Cl)cn2)(C(F)(F)F)C(F)(F)F)cc(C)c1NC(=O)c1cccc(NC(=O)c2cc(F)ccc2F)c1` [2-39], the insecticidal activity was found to be 100%.

Compound `CCc1cc(C(n2cc(Cl)cn2)(C(F)(F)F)C(F)(F)F)cc(C)c1NC(=O)c1cccc(NC(=O)c2c(F)cccc2F)c1` [2-40] gave an insecticidal activity of 100%.

In the case of `Cc1cc(C(n2ccc(Br)n2)(C(F)(F)F)C(F)(F)F)cc(C)c1NC(=O)c1cccc(NC(=O)c2cccnc2Cl)c1` [2-76, N-[3-({4-[2-(3-bromo-1H-pyrazol-1-yl)-1,1,1,3,3,3-hexafluoropropan-2-yl]-2,6-dimethylphenyl}carbamoyl)phenyl]-2-chloropyridine-3-carboxamide], the insecticidal activity is 100%.

Regarding `Cc1cc(C(n2cc(I)cn2)(C(F)(F)F)C(F)(F)F)cc(C)c1NC(=O)c1cccc(NC(=O)c2cccnc2Cl)c1` [2-95], the insecticidal activity is 100%.

In the case of `Cc1cc(C(n2ccc(C(F)(F)F)n2)(C(F)(F)F)C(F)(F)F)cc(C)c1NC(=O)c1cccc(NC(=O)c2cccnc2F)c1` [2-98], the insecticidal activity is given as 100%.

`Cc1cc(C(n2ccc(C(Cl)Cl)n2)(C(F)(F)F)C(F)(F)F)cc(C)c1NC(=O)c1cccc(NC(=O)c2cccnc2Cl)c1` [2-106]: the insecticidal activity is reported as 100%.

The compound `Cc1cc(C(n2ccc(C(F)(F)C(F)(F)F)n2)(C(F)(F)F)C(F)(F)F)cc(C)c1NC(=O)c1cccc(NC(=O)c2cccnc2Cl)c1` [2-107] showed an insecticidal activity of 100%.

`Cc1cc(C(n2cc(Br)c(Br)n2)(C(F)(F)F)C(F)(F)F)cc(C)c1NC(=O)c1cccc(NC(=O)c2cccnc2Cl)c1` [2-115] had an insecticidal activity of 100%.

Regarding `Cc1cc(C(n2cc(Cl)c(C(F)(F)F)n2)(C(F)(F)F)C(F)(F)F)cc(C)c1NC(=O)c1cccc(NC(=O)c2cccnc2Cl)c1` [2-118], the insecticidal activity turned out to be 100%.

`Cc1cc(C(n2nc(C(F)(F)F)cc2C(F)(F)F)C(F)(F)F)cc(C)c1NC(=O)c1cccc(NC(=O)c2cccnc2Cl)c1` (centres unmarked) [2-123, N-{3-[(4-{1-[3,5-bis(trifluoromethyl)-1H-pyrazol-1-yl)-2,2,2-trifluoroethyl}-2,6-dimethylphenyl)carbamoyl]phenyl}-2-chloropyridine-3-carboxamide] displayed an insecticidal activity of 100%.

`Cc1cc(C(n2nc(C(F)(F)F)cc2C(F)(F)F)(C(F)(F)F)C(F)(F)F)cc(C)c1NC(=O)c1cccc(NC(=O)c2cccnc2F)c1` [2-125]: the insecticidal activity is recorded as 100%.

On to `Cc1cc(C(n2cnc(C(F)(F)F)c2)(C(F)(F)F)C(F)(F)F)cc(C)c1NC(=O)c1cccc(NC(=O)c2cccnc2Cl)c1` [2-142], for which the insecticidal activity came out at 100%.

`CCc1cc(C(n2cncn2)(C(F)(F)F)C(F)(F)F)cc(C)c1NC(=O)c1cccc(NC(=O)c2cccnc2Cl)c1` [2-149] had an insecticidal activity of 100%.

The compound `Cc1cc(C(n2ncnn2)(C(F)(F)F)C(F)(F)F)cc(C)c1NC(=O)c1cccc(NC(=O)c2cccnc2Cl)c1` [2-154] yielded an insecticidal activity of 100%.

In turn, `CCc1cc(C(N2CC=CC2)(C(F)(F)F)C(F)(F)F)cc(C)c1NC(=O)c1cccc(NC(=O)c2cccnc2Cl)c1` [2-170] had an insecticidal activity of 100%.

As to `CCc1cc(C(OCC(F)(F)F)(C(F)(F)F)C(F)(F)F)cc(C)c1NC(=O)c1cccc(N)c1` [11-26], the insecticidal activity came to 100%.

The test system of another experiment is cucurbit leaf beetle (Aulacophora femoralis). The experiment is described as follows: Test against cucurbit leaf beetle (Aulacophora femoralis), leaf dip. It counts as in vivo. The note with it: active compound concentration of 100 ppm; second-instar larvae on cucumber leaves; after 7 days. As to the method:
as §1, §2, §3
Cucumber leaves were immersed in the test solution at the appropriate concentration, and the leaves were dried in air. The leaves were then placed in a plastic cup containing sterilized black soil, and five second-instar larvae of cucurbit leaf beetle were released therein. The plastic cup was placed in a temperature-controlled chamber at 25° C. After 7 days, the number of dead larvae was counted, and thus the insecticidal activity was calculated. An insecticidal activity of 100% means that all beetles were killed, whereas an insecticidal activity of 0% means that no beetle was killed.
The compound `O=C(Nc1c(Br)cc(C(c2ccccc2)(n2ccc(C(F)(F)F)n2)C(F)(F)F)cc1Br)c1cccc(NC(=O)c2cccnc2Cl)c1` (single isomer, unassigned) [2-100] had an insecticidal activity of 100%.

In turn, `C#CCOC(c1cc(I)c(NC(=O)c2cccc(NC(=O)c3ccccc3)c2)c(I)c1)(C(F)(F)F)C(F)(F)F` [1-79] came in with an insecticidal activity of 100%.

For the compound `CC#CCOC(c1cc(I)c(NC(=O)c2cccc(NC(=O)c3ccccc3)c2)c(I)c1)(C(F)(F)F)C(F)(F)F` [1-83], the insecticidal activity is 100%.

On to `CC#CCOC(c1cc(I)c(NC(=O)c2cccc(NC(=O)c3ccc(F)cc3)c2)c(I)c1)(C(F)(F)F)C(F)(F)F` [1-84], for which the insecticidal activity turned out to be 100%.

Turning to `CC#CCOC(c1cc(I)c(NC(=O)c2cccc(NC(=O)c3cccnc3Cl)c2)c(I)c1)(C(F)(F)F)C(F)(F)F` [1-85], the insecticidal activity was 100%.

Turning to `CCc1cc(C(Oc2ccccc2)(C(F)(F)F)C(F)(F)F)cc(C)c1NC(=O)c1cccc(NC(=O)c2cccnc2Cl)c1` [1-105], the insecticidal activity is listed as 100%.

Regarding `CCc1cc(C(Oc2cccc(Cl)c2)(C(F)(F)F)C(F)(F)F)cc(C)c1NC(=O)c1cccc(NC(=O)c2cccnc2Cl)c1` [1-108], the insecticidal activity came to 100%.

In turn, `CCc1cc(C(Oc2ccc(F)cc2)(C(F)(F)F)C(F)(F)F)cc(C)c1NC(=O)c1cccc(NC(=O)c2cccnc2Cl)c1` [1-128] registered an insecticidal activity of 100%.

`CCc1cc(C(Oc2ccc(Br)cc2)(C(F)(F)F)C(F)(F)F)cc(C)c1NC(=O)c1cccc(NC(=O)c2cccnc2Cl)c1` [1-129] registered an insecticidal activity of 100%.

The compound `Cc1cc(C(n2ccc(Cl)n2)(C(F)(F)F)C(F)(F)F)cc(C)c1NC(=O)c1cccc(NC(=O)c2cccnc2Cl)c1` [2-7] displayed an insecticidal activity of 100%.

Consider `Cc1cc(C(n2cc(I)c(C(F)(F)F)n2)(C(F)(F)F)C(F)(F)F)cc(C)c1NC(=O)c1cccc(NC(=O)c2cccnc2Cl)c1` [2-119], for which the insecticidal activity turned out to be 100%.
